Results published in PMC10023787, “Trio-pharmacophore DNA-encoded chemical library for simultaneous selection of fragments and linkers” (Nature Communications, 2023).
Like-named read-outs stand apart in the source and are kept apart here.

Tests used:
MMP-2 = biological target: T1, MMP-2 (Homo sapiens, UniProt P08253); test: MMP-2 inhibition assay (fluorogenic peptide substrate); assay type: biochemical; settings: for remaining activity (%): MMP-2; for IC50: n.d: not detected
T1 construct: purchased Sino Biological 10082-HNAH
T1 sequence (P08253 110-660): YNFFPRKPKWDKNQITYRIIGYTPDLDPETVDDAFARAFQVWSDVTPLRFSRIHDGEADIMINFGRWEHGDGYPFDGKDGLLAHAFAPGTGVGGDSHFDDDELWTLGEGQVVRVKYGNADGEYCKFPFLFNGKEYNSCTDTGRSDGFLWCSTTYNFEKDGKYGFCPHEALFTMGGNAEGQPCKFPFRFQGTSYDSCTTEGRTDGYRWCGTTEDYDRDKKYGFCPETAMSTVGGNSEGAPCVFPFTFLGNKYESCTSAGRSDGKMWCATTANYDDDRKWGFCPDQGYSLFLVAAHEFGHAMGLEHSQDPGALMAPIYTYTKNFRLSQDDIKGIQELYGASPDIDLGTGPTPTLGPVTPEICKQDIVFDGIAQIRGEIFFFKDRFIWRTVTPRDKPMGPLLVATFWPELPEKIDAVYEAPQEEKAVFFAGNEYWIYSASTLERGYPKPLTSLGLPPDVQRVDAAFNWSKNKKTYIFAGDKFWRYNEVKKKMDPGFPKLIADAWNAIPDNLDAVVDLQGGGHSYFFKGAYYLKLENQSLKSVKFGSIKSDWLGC
Experimental: (§1) The inhibition by the small molecule compounds against MMP-2/MMP-9 was measured using an assay probing the enzyme proteolytic activity on the substrate DNP-Pro-Leu-Gly-Met-Trp-Ser-Arg (Enzo Life Sciences, USA). All assays were performed in the assay buffer containing 50 mM Tris, 100 mM NaCl. 5 mM CaCl2, and 0.1% Brij 35, pH 7.5. Human proMMP-2 and proMMP-9 were purchased from Sino biological (Germany). The proMMPs were activated by 1 mM APMA in the assay buffer at 37 °C for 2 h. After activation, MMP-2 was diluted to 6.5 nM of final assay concentration, and MMP-9 was diluted by the buffer to reach 10 nM of final assay concentration. In each well, 49 μl of enzyme solution was incubated with 1 μl of compounds of series of concentration (nM-mM in DMSO) at RT for 30 min. 2 μl of the FRET substrate was added right before the measurement at a final concentration of 25 μM. The rate of hydrolysis was monitored by quantifying the emission at 360 nm (ex: 280 nm). The emission was measured with intervals of the 30 s for 30 min with Synergy H1 Plate Reader (Agilent, USA). The measurements were done in triplicate. […] Then, curves were plotted as a function of the concentration of the inhibitor against the relative enzyme activity. Vmax was derived from the detected […] signal for each concentration and logistic fitting was performed to obtain IC50 values using Origin 2019b (OriginLab).

MMP-9 = biological target: T2, MMP-9 (Homo sapiens, UniProt P14780); test: MMP-9 inhibition assay (fluorogenic peptide substrate); assay type: biochemical; design: remaining enzyme activity (% of control): scale not given here; settings: for remaining enzyme activity (% of control): MMP-9; for IC50: n.d: not detected
T2 construct: purchased Sino Biological 10327-HNAH
T2 sequence (P14780 107-707 limits assumed): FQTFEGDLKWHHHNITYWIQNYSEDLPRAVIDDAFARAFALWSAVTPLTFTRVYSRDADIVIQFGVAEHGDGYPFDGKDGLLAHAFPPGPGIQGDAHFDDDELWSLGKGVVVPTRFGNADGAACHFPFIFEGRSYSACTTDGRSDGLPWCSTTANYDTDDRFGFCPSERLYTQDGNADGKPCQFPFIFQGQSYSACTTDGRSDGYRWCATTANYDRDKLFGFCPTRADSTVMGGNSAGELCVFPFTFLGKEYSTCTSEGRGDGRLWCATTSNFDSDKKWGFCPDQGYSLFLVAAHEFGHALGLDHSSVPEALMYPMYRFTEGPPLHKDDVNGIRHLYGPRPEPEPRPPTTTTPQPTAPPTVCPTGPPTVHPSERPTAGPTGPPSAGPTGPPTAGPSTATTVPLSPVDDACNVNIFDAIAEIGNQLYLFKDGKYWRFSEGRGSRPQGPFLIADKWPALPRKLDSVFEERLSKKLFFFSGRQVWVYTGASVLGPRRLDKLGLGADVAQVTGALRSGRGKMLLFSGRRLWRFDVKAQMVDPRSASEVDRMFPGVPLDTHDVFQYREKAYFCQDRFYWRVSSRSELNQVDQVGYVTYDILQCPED
Experimental: as §1

[1] = mean ± SE, Fig. 5d unit inferred, µM, read-out: IC50
[2] = mean ± SE, Fig. 5e prints no unit, µM, read-out: IC50
[3] = Figure 5d, fragment combination joined by linker, read-out: MMP2 IC50
[4] = Figure 5d, fragment combination joined by linker, read-out: MMP9 IC50

`O=C(C=CCCCCNC(=O)c1cncc(O)c1)CC(=O)NCC12CC3CC(CC(C3)C1)C2` [66+828 Linker 12] was tested, and the “remaining activity (%)” value (MMP-2; concentration 0.0156 µM) was 99.10, the “remaining activity (%)” value (MMP-2; concentration 0.08 µM) was 102.47 and the “remaining activity (%)” value (MMP-2; concentration 0.39 µM) was 95.82. For the same molecule, the “remaining activity (%)” value (MMP-2; concentration 1.95 µM) was 94.73, the “remaining activity (%)” value (MMP-2; concentration 9.75 µM) was 93.23 and the “remaining activity (%)” value (MMP-2; concentration 48.76 µM) was 86.38. The “remaining activity (%)” value (MMP-2; concentration 243.80 µM) was 70.35, the “remaining activity (%)” value (MMP-2; concentration 1219.00 µM) was 22.32 and the IC50 (MMP-2; [1]) was 488 ± 45.3 µM. For the same molecule, the “remaining enzyme activity (% of control)” value (MMP-9; concentration 0.08 µM) was 103.52, the “remaining enzyme activity (% of control)” value (MMP-9; concentration 0.39 µM) was 103.70 and the “remaining enzyme activity (% of control)” value (MMP-9; concentration 1.95 µM) was 101.49. For the same molecule, the “remaining enzyme activity (% of control)” value (MMP-9; concentration 9.75 µM) was 97.37, the “remaining enzyme activity (% of control)” value (MMP-9; concentration 48.76 µM) was 61.33 and the “remaining enzyme activity (% of control)” value (MMP-9; concentration 243.80 µM) was 18.36. The “remaining enzyme activity (% of control)” value (MMP-9; concentration 1219.00 µM) was 3.09 and the IC50 (MMP-9; [2]) was 77.4 ± 13.9 µM.

`O=C(CSCCNC(=O)c1cncc(O)c1)NCC12CC3CC(CC(C3)C1)C2` [66+828 Linker 24] was tested, and the “remaining activity (%)” value (MMP-2; concentration 0.00858 µM) was 98.41, the “remaining activity (%)” value (MMP-2; concentration 0.0429 µM) was 98.85 and the “remaining activity (%)” value (MMP-2; concentration 0.21 µM) was 87.72. The “remaining activity (%)” value (MMP-2; concentration 1.07 µM) was 96.38, the “remaining activity (%)” value (MMP-2; concentration 5.36 µM) was 85.18 and the “remaining activity (%)” value (MMP-2; concentration 26.80 µM) was 89.19. The “remaining activity (%)” value (MMP-2; concentration 670.10 µM) was 1.11, the “remaining activity (%)” value (MMP-2; concentration […]) was 61.21 and the IC50 (MMP-2; [1]) was 184 ± 17.3 µM. For the same molecule, the “remaining enzyme activity (% of control)” value (MMP-9; concentration 0.0429 µM) was 93.34, the “remaining enzyme activity (% of control)” value (MMP-9; concentration 0.21 µM) was 95.33 and the “remaining enzyme activity (% of control)” value (MMP-9; concentration 1.07 µM) was 103.77. For the same molecule, the “remaining enzyme activity (% of control)” value (MMP-9; concentration 5.36 µM) was 97.03, the “remaining enzyme activity (% of control)” value (MMP-9; concentration 26.80 µM) was 82.56 and the “remaining enzyme activity (% of control)” value (MMP-9; concentration 670.10 µM) was 15.33. The “remaining enzyme activity (% of control)” value (MMP-9; concentration […]) was 65.61 and the IC50 (MMP-9; [2]) was 216 ± 47.3 µM.

For `O=C(C=CCCCCC(=O)NCc1c[nH]nn1)CC(=O)NCC12CC3CC(CC(C3)C1)C2` [66_787 12], the IC50 (MMP-2; [3]) was 339 µM and the IC50 (MMP-9; [4]) was 115 µM.

`O=C(CNC(=O)NC12CC3CC(CC(C3)C1)C2)NCCOCCOCCNC(=O)c1cncc(O)c1` [66_828 10] showed an IC50 (MMP-2; [3]) of 293 µM and an IC50 (MMP-9; [4]) of 521 µM.

`O=C(/C=C/CCCCNC(=O)c1cncc(O)c1)CC(=O)NCC12CC3CC(CC(C3)C1)C2` [66_828 12] showed an IC50 (MMP-2; [3]) of 488 µM and an IC50 (MMP-9; [4]) of 77.4 µM.
